In patent US20240131356A1, “COMBINATION OF INTRACELLULAR AND EXTRACELLULAR PHOTOSENSITIZERS FOR TREATMENT OF BACTERIAL INFECTION” (priority 2021, published 2024):
“Also recorded” adds a separate entry of the source. Where two headings read alike, the source gives them in different places.

Tests used:
[1] = system: hrtAB promoter (HssRS activation; CgoX activation); test: XylE colorimetric reporter assay (phrt.xylE), activation of HssRS / hrtAB expression; type: cell-based, Staphylococcus aureus strain Newman; conditions: for XylE activity in comparison to '8882 at 10 μM: six-hour exposure (FIG. 2A); for Specifc Activity (nMol/min*mg), data collected at 10 uM: footnote a: data collected at 10 uM
Protocol: (§1) To maximize the production of coproporphyrin III and thereby increase blue-light mediated killing of S. aureus, synthesized analogs of VU0038882 were tested. To determine the relative efficacy of each analog, a Newman strain of S. aureus, transformed with the phrt.xylE (11) reporter vector was used. This reporter allows for colorimetric assessment of intracellular heme production. To perform the assay, each individual analog was added to 3 mL of TSB+10 μg/mL chloramphenicol to reach a concentration of 30 μM, and then 700 μL of this newly made 30 μM solution was added to 1.3 mL of remaining TSB+10 μg/mL chloramphenicol media to create the 10 μM concentration. Either 10 μM or 30 μM concentrations of compounds in medium were then aliquoted into three 0.5 mL replicate tubes. Three separate 16- to 18-hour overnight subcultures from isolated colonies were back-diluted 1:100 into the tubes creating three biological replicates and were subcultured for 6 hours at 37° C. and 180 rpm. After incubation, the cells were pelleted at 16,400 g for 5 minutes and the supernatant aspirated before washing with 0.5 mL of 20 mM potassium phosphate wash buffer. After pelleting the cells again at 16,400 g for 5 minutes the wash buffer was aspirated, and the pellets were stored at −80° C. until further use.
When the cells were ready to be lysed and data collected, samples were removed from the −80° C. freezer, allowed to thaw, and resuspended in 150 μL of lysis buffer (100 mM potassium phosphate pH=8.0, 10% v/v acetone, 20 μg/mL lysostaphin) before incubation in a 37° C. bead bath for 20 minutes and then cooled for 5 minutes on ice. The samples were then centrifuged at 16,400 g and 4° C. for 30 minutes to separate the pellet from the lysate, which was then placed into a 96-well microtiter plate and kept on ice. The lysate from each sample was pipetted into 20 μL aliquots on a round-bottom or flat-bottom 96-well plate on ice. The round bottom plate was labeled for bicinchoninic acid assay (BCA) protein content analysis, and 10 μL of BCA standards was added to extra wells on the plate. Protein quantification was performed using a Pierce BCA Protein Assay Kit as per the manufacturer's instructions. While the BCA plate was in the incubator, the flat-bottom plate was prepared by thawing 1 M catechol on ice and making 100 mM potassium phosphate (pH=8.0) assay buffer. After preparing a kinetic read at 375 nm for 10 minutes with a minimal interval between reads, the catechol was diluted 1:1,000 into the assay buffer and quickly dispensed into a sterile basin, then 200 μL of the solution was pipetted into each well using a multichannel pipette. All data were exported into Excel software (Microsoft) and analyzed for specific activity of each compound and activity relative to VU0038882 controls.
After 219 analogs had been screened, the compounds with the best percent VU0038882 activity were tested again following the same protocol, but with twelve replicates per concentration with data expressed as averages ±the standard deviation (SD). Additionally, the top-performing compounds were tested using the XylE protocol with a concentration gradient to determine their half maximal effective concentration (EC50) values.
Photosensitizer-conjugated antibodies expose bacteria to reactive oxygen species (ROS) externally, but this treatment can be paired with small molecule treatment to generate ROS internally via heme biosynthesis pathway intermediates. To discover new compounds capable of activating CgoX and/or displaying less toxicity to eukaryotic cells, a medicinal chemistry campaign was initatied based on systematic alternation of the '8882 structure. Each new analog was tested for the ability to activate HssRS using the previously described XylE colorimetric assay that employs a reporter construct in which the hrtAB promoter is fused to a xylE reporter gene. […]

[2] = system: S. aureus; test: Toxicity of analogs to bacteria in the XylE cultures; type: cell-based, Staphylococcus aureus; conditions: target dose of 30 μM
Protocol: as §1
The most consistent activity with non-furan-containing compounds was found with thiophene replacements.

[3] = system: S. aureus USA300 luxBADCE; test: In vivo murine superficial skin (ear) infection model with PDT, bioluminescence imaging; parameters: species or system BALB/cJ mice; conditions: for Bacterial growth / luminescence in infected mouse ear compared to untreated animals: '8882 plus conjugated antibodies (i.p. and topical) plus 690 nm and 395 nm light, two-day regimen
Protocol: All mice were maintained in compliance with Vanderbilt's Institutional Animal Care and Use Committee regulations (protocol M1800026). To create a superficial skin wound a similar model of infection was used, as previously described (44), with modifications to relocate the area of infection to the inner epithelial layer of each ear. Eight- to 10-week-old female BALB/cJ mice were used for the S. aureus infections. Twenty-four hours prior to infection the mice were injected intraperitoneally with 20 μg/mL of both STAU-149 (anti-IsdA) and STAU-281 (anti-IsdB) in PBS. Overnight cultures of S. aureus USA300 with a chromosomally-integrated luxBADCE cassette (45) were subcultured 1:50 into TSB containing 1 mM 2,2-dipyridyl. Cultures were grown for 3.5 h to reach exponential phase of growth. Cell pellets were washed twice with ice-cold PBS with the original culture volume, centrifuged, and resuspended in 250 μL of ice-cold PBS. Approximately 5×10^7 log-phase CFUs were inoculated in 5 μL of PBS directly onto the surface of the wound present on each ear, and each mouse was again injected intraperitoneally with antibodies. Mice were placed into new sterile cages in groups of three in accordance with their experimental condition. Four hours post-infection, the mice were visualized using the IVIS spectrum (Perkin Elmer) in vivo bioluminescence imaging system, with data being collected with a 5-minute exposure time. Each mouse was then transferred to a nose cone under continuous isoflurane anesthesia and, 30 minutes prior to light exposure, the ears were exposed to 10 ∥L of the 450 ∥M '8882 and 20 μg/mL mAb cocktail in PBS containing 10% DMSO. Control mice were left untreated. The right ventrodorsal ear of each mouse was exposed to the 395-nm LED for 20.6-23.1 minutes delivering a total energy dose of 50 J/cm^2. […]
The left ventrodorsal ear of each mouse was not exposed to light during treatment. […] Luminescence was quantified for individual ears using ImageJ (FIJI) (46-48). […] Post-treatment images were again collected at 5-minute exposure times using the IVIS system and analyzed using ImageJ (FIJI). […]

[4] = system: S. aureus strain Newman wild-type (iron-starved); test: In vitro antimicrobial photodynamic therapy light killing assay; type: cell-based, Staphylococcus aureus; conditions: for Growth inhibition / reduction of CFUs/mL by small molecule plus IR700DX-conjugated anti-IsdA and anti-IsdB mAb mixture: combination with mAb mixture, 63 J/cm^2 690 nm and 50 J/cm^2 395 nm light (FIG. 3A)
Protocol: Iron-chelated bacterial cultures of the indicated strains were prepared. Antibodies of interest were added to 5 mL of iron-chelated TSB at a concentration of 2.5 ug/mL for subculture. These conditions were then separated into four-1 mL aliquots, which was comprised of replicates for both the experimental and control strains. The iron-depleted bacterial strains Newman wildtype and Newman ΔisdABΔspa (40) were then normalized to an OD600 of 1.0 and back diluted 1:100 into each condition from the overnight cultures. These subcultures were then incubated at 37° C. and 180 rpm for 30 minutes, and the bacteria were pelleted via centrifugation for 5 minutes at 16,400 g and 4° C. The pellet was washed twice in 1 mL of cold PBS before being finally resuspended in 1 mL of cold PBS.
During the subculture incubation, a measurement was taken of the power of each light to calculate the time needed to achieve a light dose of 63 J/cm^2 for the 690 nm NIR light (M680L4; Thorlabs) and 50 J/cm^2 for the 395 nm blue-LED (M395L4; Thorlabs) mounted 5 cm above the measurement probe. This measurement was taken using a photodiode and power meter (919P-003-10, 843-R; Newport) with a cutout 3×3 portion of a black 384-well microtiter plate positioned centrally over the measurement probe. The outer wells were covered with aluminum foil to ensure that the measurement taken by the probe was strictly limited to the light that entered the 0.1225 cm^2 area of the well. This approach allowed for the irradiance of the light to be calculated according to (readout (mW)/0.1225 cm^2). This value was then divided into the total light dose for each light and divided by 60 to determine the light dose in minutes. The outputs of the 690 nm and 395 nm LEDs were spatially combined using a long-pass dichroic filter (FF470-Dio; Semrock Inc.) for all experimental conditions where light was present.
The spatial intensity profile of the light output is approximately Gaussian in shape in both directions, so 25 μL of each sample was aliquoted into a 3×3 square on a black 384-well microtiter plate with the center well remaining empty, since it would receive a stronger dose than the surrounding wells. The samples were organized such that the conditions alternated wild-type and knockout in a clockwise fashion, beginning with the lower left corner well. In addition, the center well was centered under the light to equate the radial diminishment of light dose amongst the samples.
To ensure the compounds' efficacy in the full therapeutic regimen and reduce potential unknown variables, each of the compounds was tested with 395 nm or 690 nm wavelengths and with Newman WT or Newman ΔisdAB Δspa. […]

[5] = Staphylococcus aureus, NEWMAN, read-out: logEC50 (converted)

Compound	XylE activity in comparison to '8882 at 10 μM [1]	logEC50 ([1]; XylE protocol with a concentration gradient, Newman phrt.xylE)	EC50 ([1]; XylE protocol with a concentration gradient, Newman phrt.xylE, read-out: EC50)	Specifc Activity (nMol/min*mg), data collected at 10 uM ([1]; 6 h subculture)	Toxicity to bacteria (S. aureus) [2]	Bacterial growth / luminescence in infected mouse ear compared to untreated animals [3]	Bacterial growth / luminescence in infected mouse ear compared to untreated animals ([3]; listed as VU00038882)	Bacterial burden in infected mouse ear, antibodies plus '8882 without light ([3]; no light exposure)	Decrease of S. aureus viability compared with untreated cells, combined treatment ([4]; '8882 plus IR700DX-conjugated IsdA and IsdB antibodies plus 690 nm and 395 nm light)	Efficacy against S. aureus in PDT, small molecule alone ([4]; alone, with light)	Growth inhibition / reduction of CFUs/mL by small molecule plus IR700DX-conjugated anti-IsdA and anti-IsdB mAb mixture [4]	Growth inhibition / reduction of CFUs/mL by small molecule plus IR700DX-conjugated anti-IsdA and anti-IsdB mAb mixture ([4]; listed as VU0038882)	Specifc Activity @ 30 μM ([1]; 30 μM compound, 6 h subculture, XylE activity normalized to protein)	EC50 ([1]; Staphylococcus aureus, NEWMAN)	EC50 [1, 5]
2-(5-(5-(Hydroxymethyl)thiophen-2-yl)-1H-pyrazol-3-yl)naphthalen-1-ol [′9952]	highest activity at 10 μM observed to date	−5.182 ± 0.065	6.58 µM	18.10 ± 1.80^a nMol/min*mg	overtly toxic to bacteria; also recorded: exhibiting toxicity to S. aureus										
Oc1c(-c2cc(-c3ccco3)[nH]n2)ccc2ccccc12 [′8882, 2-(5-(Furan-2-yl)-1H-pyrazol-3-yl)naphthalen-1-ol]						significantly less bacterial growth	significant reduction in bacterial luminescence	a reduction in bacterial burden but did not reach the same extent as the combinatorial treatment	10,000 fold	efficacious against S. aureus	significant growth inhibition of S. aureus	greater reduction of CFUs/mL in vitro than either condition alone	30.04 ± 10.24 nmol/min/mg	10.5 µM	10.5 µM
Oc1c(-c2cc(-c3ccoc3)[nH]n2)ccc2ccccc12 [′9133, 2-(5-(Furan-3-yl)-1H-pyrazol-3-yl)naphthalen-1-ol]	outperformed '8882			8.346 ± 1.304^a nMol/min*mg	overtly toxic to bacteria; also recorded: exhibiting toxicity to S. aureus									8.17 µM	8.17 µM
